Converted amounts (≈) assume the structure as drawn. “And” between values parts separate entries of the source, which are not always exact repeats. Equal entries are not always repeated. Structures can show the parent of a compound that is named as a salt. Where two headings read alike, the source gives them in different places.
Legend:
[1] = test system: TC-1 tumor cells; design: method as in PMID 23570983; settings: 3 × 10^3 cells, 48 h of incubation; cited from earlier work
[2] = design: method as in PMID 18519780; settings: human subjects, patients with advanced or metastatic cancer, estimated; cited from earlier work
[3] = design: method as in PMID 19860433, PMID 26806350; settings: cited from earlier work
[4] = design: method as in PMID 19860433, PMID 17090088; settings: oral, animal (rodent) models; cited from earlier work
[5] = design: method as in PMID 19860433; settings: mouse model, molar equivalent dose, cited from earlier work
[6] = test system: LLC tumors; assay: Antitumor activity in mice with LLC lung tumors; type: in vivo, C57BL/6J mice; settings: p.o. once in every two days, GemC18 250 μg/mouse, GemHCl 141.5 μg/mouse (molar equivalent)
Description: LLC tumors were established in female C57BL/6J mice (6-8 week) from the Beijing Vital River Laboratory Animal Technology Co., Ltd. (Beijing, China). Mice were s.c. injected with LLC cells (5 × 10^5) in their back on day 0. On day 11, mice were randomized into groups (n = 8) and were treated by oral gavage with GemC18-SLNs, GemC18-free SLNs, GemC18 alone in a Tween 20 solution, GemHCl (molar equivalent of GemC18), all in a mannitol solution (5%, w/v). Control mice were orally gavaged with a mannitol solution (5%). Mice were treated once in every two days for 3 weeks. The dose of GemC18 was 250 μg/mouse, 141.5 μg/mouse for GemHCl (i.e. molar equivalent to 250 μg of GemC18). GemC18 was dissolved into 1% (v/v) Tween 20 in a 5% (w/v) mannitol solution to a proper concentration. Mouse health was monitored daily, and weight recorded. Tumor size was measured every other day. […] Microscopic images taken at 200 x magnification were analyzed using an Image-Pro Plus software (Media Cybernetics, Inc., Shanghai, China) to determine the percent of cells that are Ki67 positive, the microvessel density (MVD) in tumor tissues, and the optical density of the anti-caspase 3 staining.

[7] = test system: LLC cells; design: method as in earlier work; settings: 3 × 10^3 cells, 48 h incubation; cited from earlier work
[8] = test system: TC-1 tumors; design: method as in PMID 21371545, PMID 22471294; settings: GemC18 dissolved in a Tween 20 solution; cited from earlier work
[9] = test system: B16F10 tumors; design: method as in PMID 21371545, PMID 22471294; settings: GemC18 dissolved in a Tween 20 solution; cited from earlier work
[10] = test system: HT-29 tumor cells; design: method as in PMID 17352232; settings: peritumoral injection, GemC18 in a Tween 80 solution; cited from earlier work
[11] = test system: TC-1 tumors; assay: Antitumor activity in mice with pre-established TC-1 tumors; type: in vivo, C57BL/6 mice; settings: p.o. once daily, GemC18 150 μg/mouse, gemcitabine HCl 85 μg/mouse (molar equivalent)
Excerpt: When TC-1 tumor cells were used, female C57BL/6 mice (18-20 g, 6-8 weeks, n = 5) were subcutaneously (s.c) injected with TC-1 cells (5 × 10^5 cells/mouse) in the right flank on day 0. Mouse hair was carefully trimmed at the injection site one day prior to the injection. Treatment with GemC18-SLNs, GemC18-in-vegetable oil (GemC18-in-oil), GemC18-free SLNs, all in a mannitol solution (5%, w/v), was started on day 11, and mice were orally gavaged daily until the endpoint (i.e. death, tumor size reaching 15 mm, tumor ulceration, body weight loss of more than 20%, or other signs of severe distress and discomfort). As controls, mice were orally gavaged with a mannitol solution (5%) or i.v. injected with the GemC18-SLNs, twice a week until the endpoint. The dose of GemC18 was 250 μg per mouse per dose for the oral route, 500 μg per mouse per dose for i.v. route. Tumor size was measured 2-3 times a week, and tumor volume was calculated as: volume (mm^3) = (length x width^2)/2. Mouse survival time was also recorded. In another study, TC-1 tumor-bearing female C57BL/6 mice were orally gavaged with GemC18-SLNs, GemC18-in-oil, vegetable oil alone (oil), or gemcitabine HCl (GemHCl, as a control), once daily. The dose of GemC18 was 150 μg per mouse per dose, and dose of GemHCl was 85 μg per mouse per dose (i.e. molar equivalent to the dose of GemC18).

[12] = test system: leukemia; settings: oral, rat leukemia model; cited from earlier work
[13] = design: method as in PMID 18473859, PMID 18474674; settings: in water; cited from earlier work

Row | SMILES | IC50 [1] | solubility in water [3] | antitumor activity vs molar equivalent dose of gemcitabine [4] | LLC tumor growth [6] | IC50 [7] | also measured
1 | Nc1ccn([C@@H]2O[C@H](CO)[C@@H](O)C2(F)F)c(=O)n1 [gemcitabine, 2′,2′-difluorodeoxycytidine] | 0.0106 ± 0.0011 µM | – | – | – | – | oral bioavailability [2]: 10% and ~ 10%
2 | CCCC(CCC)C(=O)Nc1ccn([C@@H]2O[C@H](CO)[C@@H](O)C2(F)F)c(=O)n1 [LY2334737] | – | > 2 mg/mL | stronger antitumor activity | – | – | systemic exposure (AUC) vs oral gemcitabine ([5]; listed as LY2334734): higher systemic exposure of gemcitabine than oral free gemcitabine; systemic exposure (AUC) vs oral gemcitabine [5]: significantly higher
3 | CCCCCCCCCCCCCCCCCC(=O)Nc1ccn([C@@H]2OC(CO)C(O)C2(F)F)c(=O)n1 (stereo partly shown) [GemC18, 4-(N)-stearoyl gemcitabine] | 0.0185 ± 0.0017 µM | 0.00138 ± 0.0016 mg/mL (≈ 2.61 µM) | – | also inhibited LLC tumor growth, but they were significantly less effective than oral GemC18-SLNs | 0.13 ± 0.0311 µM | antitumor activity [8]: did not show any significant antitumor activity; antitumor activity [9]: did not show any significant antitumor activity; tumor growth [10]: did not significantly affect the tumor growth
4 | Nc1ccn([C@@H]2O[C@H](CO)[C@@H](O)C2(F)F)c(=O)n1 [gemcitabine HCl] | – | – | – | also inhibited LLC tumor growth, but they were significantly less effective than oral GemC18-SLNs | 0.0234 ± 0.0067 µM | TC-1 tumor growth [11]: significantly less effective than the GemC18-SLNs
5 | CC(C)=CCC/C(C)=C/CC/C(C)=C/CC/C=C(\C)CC/C=C(\C)CCC(=O)Nc1ccn([C@@H]2O[C@H](CO)[C@@H](O)C2(F)F)c(=O)n1 [SQdFdC] | – | – | stronger antitumor activity | – | – | antitumor activity [12]: potent antitumor activity; size of self-assembled nanoparticles [13]: 100-300 nm

Reference: article PMC5685716, “Oral 4-(N)-stearoyl gemcitabine nanoparticles inhibit tumor growth in mouse models” (Oncotarget, 2017)
